Source: patent US11098010B2 (priority 2017, dated 2021)
Where a name gives a salt, the structure may show the parent alone.

system: HBV rcDNA in HepDE19 cells; assay: HepDE19 assay with bDNA quantitation of HBV rcDNA; format: cell-based, hepatitis B virus (HBV); conditions: Hepatitis B virus, HepDE19, 168 h, HepDE19 cells, inhibition of rcDNA formation, 7 day incubation, top concentration 25 μM; read-out: DE-19 bDNA EC50

`O=C(N[C@H]1CCc2c(C(=O)Nc3ccc(F)c(Cl)c3)ccc(F)c21)c1nccs1` [Compound 127, (S)—N-(4-((3-Chloro-4-fluorophenyl)carbamoyl)-7-fluoro-2,3-dihydro-1H-inden-1-yl)thiazole-2-carboxamide] and `O=C(N[C@H]1CCc2c(C(=O)Nc3ccc(F)c(Cl)c3)ccc(F)c21)c1cnco1` [Compound 129, (S)—N-(4-((3-Chloro-4-fluorophenyl)carbamoyl)-7-fluoro-2,3-dihydro-1H-inden-1-yl)oxazole-5-carboxamide] are within 1.5-fold of each other in EC50: 0.36 µM for the first, 0.41 µM for the second.

Compared with `O=C(Nc1ccc(F)c(Cl)c1)c1ccc(F)c2c1CC[C@@H]2NS(=O)(=O)C1CC1` [Compound 128, (S)—N-(3-Chloro-4-fluorophenyl)-1-(cyclopropanesulfonamido)-7-fluoro-2,3-dihydro-1H-indene-4-carboxamide], `O=C(CO)N[C@H]1CCc2c(C(=O)Nc3ccc(F)c(Cl)c3)ccc(F)c21` [Compound 143, (S)—N-(3-Chloro-4-fluorophenyl)-7-fluoro-1-(2-hydroxyacetamido)-2,3-dihydro-1H-indene-4-carboxamide] is 38-fold higher in EC50: 0.04 µM for the first, 1.5 µM for the second. The first is the more potent here.

Going from `O=C(N[C@H]1CCc2c(C(=O)Nc3ccc(F)c(Cl)c3)ccc(F)c21)OC1CCCC1` [Compound 131, O-Cyclopentyl, N—(S)-(4-((3-chloro-4-fluorophenyl)carbamoyl)-7-fluoro-2,3-dihydro-1H-inden-1-yl)carbamate] to `O=C(N[C@H]1CCc2c(C(=O)Nc3ccc(F)c(Cl)c3)ccc(F)c21)OCCO` [Compound 141, O-2-Hydroxyethyl, N—(S)-(4-((3-chloro-4-fluorophenyl)carbamoyl)-7-fluoro-2,3-dihydro-1H-inden-1-yl) carbamate], the EC50 falls from 0.59 µM to 0.18 µM (3.3-fold).

Compound `Cn1ccnc1COC(=O)N[C@H]1CCc2c(C(=O)Nc3ccc(F)c(Cl)c3)ccc(F)c21` [Compound 137, O-(1-Methyl-1H-imidazol-2-yl)methyl, N—(S)-(4-((3-chloro-4-fluorophenyl)carbamoyl)-7-fluoro-2,3-dihydro-1H-inden-1-yl) carbamate] has an EC50 of 0.1 µM.

same assay, conditions: Hepatitis B virus, HepDE19, 168 h, read-out: DE-19 bDNA EC50 (μM), HepDE19 cells, inhibition of rcDNA formation, 7 day incubation, top concentration 25 μM

Going from `O=C(N[C@H]1CCc2c(C(=O)Nc3ccc(F)c(Cl)c3)ccc(F)c21)OCCCn1ccnc1` [Compound 125, O-3-(1H-Imidazol-1-yl)propyl, N—(S)-(4-((3-chloro-4-fluorophenyl)carbamoyl)-7-fluoro-2,3-dihydro-1H-inden-1-yl) carbamate Hydrochloride] to `O=C(N[C@H]1CCc2c(C(=O)Nc3ccc(F)c(Cl)c3)ccc(F)c21)OCCn1cccn1` [Compound 133, O-2-(1H-Pyrazol-1-yl)ethyl, N—(S)-(4-((3-chloro-4-fluorophenyl)carbamoyl)-7-fluoro-2,3-dihydro-1H-inden-1-yl) carbamate], the EC50 falls from 0.28 µM to 0.15 µM (1.9-fold).

Compared with `N#Cc1cc(NC(=O)c2ccc(F)c3c2CC[C@@H]3NC(=O)OCc2ccccn2)ccc1F` [Compound 126, O-Pyridin-2-ylmethyl, N—(S)-(4-((3-cyano-4-fluorophenyl)carbamoyl)-7-fluoro-2,3-dihydro-1H-inden-1-yl)carbamate Hydrochloride], `O=C(N[C@H]1CCc2c(C(=O)Nc3ccc(F)c(C(F)F)c3)ccc(F)c21)OCc1ccccn1` [Compound 148, O-Pyridin-2-ylmethyl, N—(S)-(4-((3-(difluoromethyl)-4-fluorophenyl)carbamoyl)-7-fluoro-2,3-dihydro-1H-inden-1-yl)carbamate Hydrochloride] is 2-fold lower in EC50: 0.24 µM for the first, 0.12 µM for the second. The second is the more potent here.

First: COC(=O)N[C@@H]1c2cccc(C(=O)Nc3ccc(F)c(Cl)c3)c2C[C@H]1OC [Compound 130, O-Methyl, N-((1R,2R)-4-((3-chloro-4-fluorophenyl)carbamoyl)-2-methoxy-2,3-dihydro-1H-inden-1-yl)carbamate]
Second: COc1ccnc(COC(=O)N[C@H]2CCc3c(C(=O)Nc4ccc(F)c(Cl)c4)ccc(F)c32)c1 [Compound 140, O-(4-Methoxypyridin-2-yl)methyl, N—(S)-(4-((3-chloro-4-fluorophenyl)carbamoyl)-7-fluoro-2,3-dihydro-1H-inden-1-yl) carbamate]
The EC50 of the first is 2.2-fold lower: 0.1 µM for the first, 0.22 µM for the second.

`O=C(N[C@H]1CCc2c(C(=O)Nc3ccc(F)c(Cl)c3)ccc(F)c21)OCC1CNC(=O)O1` (stereo partly drawn) [Compound 132, O-(2-Oxooxazolidin-5-yl)methyl, N—((S)-4-((3-chloro-4-fluorophenyl)carbamoyl)-7-fluoro-2,3-dihydro-1H-inden-1-yl) carbamate] and `O=C(N[C@H]1CCc2c(C(=O)Nc3ccc(F)c(Cl)c3)ccc(F)c21)OC[C@@H]1CCCO1` [Compound 142, O—((S)-Tetrahydrofuran-2-yl)methyl, N—((S)-4-((3-chloro-4-fluorophenyl)carbamoyl)-7-fluoro-2,3-dihydro-1H-inden-1-yl) carbamate] are within 1.5-fold of each other in EC50: 0.22 µM for the first, 0.27 µM for the second.

Compared with `O=C(N[C@H]1CCc2c(C(=O)Nc3ccc(F)c(Cl)c3)ccc(F)c21)OCc1ncccc1F` [Compound 138, O-(3-Fluoropyridin-2-yl)methyl, N—(S)-(4-((3-chloro-4-fluorophenyl)carbamoyl)-7-fluoro-2,3-dihydro-1H-inden-1-yl) carbamate], `O=C(Nc1cccnc1)N[C@H]1CCc2c(C(=O)Nc3ccc(F)c(Cl)c3)ccc(F)c21` [Compound 144, (S)—N-(3-Chloro-4-fluorophenyl)-7-fluoro-1-(3-(pyridin-3-yl)ureido)-2,3-dihydro-1H-indene-4-carboxamide] is 5.3-fold higher in EC50: 0.16 µM for the first, 0.85 µM for the second.

Compared with `O=C(N[C@H]1CCc2c(C(=O)Nc3ccc(F)c(Cl)c3)ccc(F)c21)OC[C@H]1COCCN1` [Compound 139, O—((R)-Morpholin-3-yl)methyl, N—((S)-4-((3-chloro-4-fluorophenyl)carbamoyl)-7-fluoro-2,3-dihydro-1H-inden-1-yl) carbamate Hydrochloride], `O=C(N[C@H]1CCc2c(C(=O)Nc3ccc(F)c(Cl)c3)ccc(F)c21)OCCN1CCCCC1` [Compound 147, O-2-(Piperidin-1-yl)ethyl, N—(S)-(4-((3-chloro-4-fluorophenyl)carbamoyl)-7-fluoro-2,3-dihydro-1H-inden-1-yl) carbamate] is 1.8-fold higher in EC50: 0.62 µM for the first, 1.1 µM for the second.

First: O=C(Nc1ccncc1)N[C@H]1CCc2c(C(=O)Nc3ccc(F)c(Cl)c3)ccc(F)c21 [Compound 145, (S)—N-(3-Chloro-4-fluorophenyl)-7-fluoro-1-(3-(pyridin-4-yl)ureido)-2,3-dihydro-1H-indene-4-carboxamide]
Second: O=C(Nc1ccc(F)c(Cl)c1)c1ccc(F)c2c1CC[C@@H]2Nc1nccs1 [Compound 146, (S)—N-(3-Chloro-4-fluorophenyl)-7-fluoro-1-(thiazol-2-ylamino)-2,3-dihydro-1H-indene-4-carboxamide]
The EC50 of the first is 3.9-fold higher: 0.93 µM for the first, 0.24 µM for the second. The second is the more potent here.

same assay, conditions: read-out: DE-19 bDNA EC50; HepDE19 cells, inhibition of rcDNA formation, 7 day incubation, top concentration 25 μM

For `CC1(C)Cc2c(C(=O)Nc3ccc(F)c(Cl)c3)ccc(F)c2C1NC(=O)OCc1ccccn1` (centres unmarked) [Compound 135, O-Pyridin-2-ylmethyl, N-(4-((3-chloro-4-fluorophenyl)carbamoyl)-7-fluoro-2,2-dimethyl-2,3-dihydro-1H-inden-1-yl) carbamate], the EC50 was 8.4 µM.
`CC1(C)Cc2c(C(=O)Nc3ccc(F)c(Cl)c3)ccc(F)c2C1NC(=O)OCc1ccccn1` (centres unmarked) [Compound 136, O-Pyridin-2-ylmethyl, N-(4-((3-chloro-4-fluorophenyl)carbamoyl)-7-fluoro-2,2-dimethyl-2,3-dihydro-1H-inden-1-yl) carbamate] gave an EC50 of 0.29 µM.
